In patent publication US20100286215A1, “BIS-AROMATIC COMPOUNDS USEFUL IN THE TREATMENT OF INFLAMMATION” (BIS-AROMATIC COMPOUNDS USEFUL IN THE TREATMENT OF …, priority 2007, published 2010):

Target: T1, Recombinant human LTC4 synthase (Homo sapiens, UniProt Q16873)
T1 construct: made in house; host or cells: Pichia pastoris ('Piccia pastoralis' [sic])
T1 sequence (Q16873 1-150): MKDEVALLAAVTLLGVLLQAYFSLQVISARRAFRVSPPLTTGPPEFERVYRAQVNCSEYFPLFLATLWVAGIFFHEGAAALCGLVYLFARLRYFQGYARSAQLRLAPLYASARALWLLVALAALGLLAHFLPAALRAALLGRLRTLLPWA
Assay: LTC4 synthase assay (conversion of LTA4 methyl ester to LTC4 methyl ester, HPLC)
Assay type: biochemical
Details: for inhibition at 10 µM: read-out: Percantage Inhibition at 10 μM (unless specified otherwise)
Protocol: In the assay LTC4 synthase catalyses the reaction where the substrate LTA4 methyl ester is converted to LTC4 methyl ester. Recombinant human LTC4 synthase is expressed in Piccia pastoralis and the purified enzyme is dissolved in 25 mM Tris-buffer pH 7.8 and stored at −20° C. The assay is performed in phosphate buffered saline (PBS) pH 7.4, supplemented with 5 mM glutathione (GSH). The reaction is terminated by addition of acetonitrile/MeOH/acetic acid (50/50/1). The assay is performed at rt in 96-well plates. Analysis of the formed LTC4 methyl ester is performed with reversed phase HPLC (Waters 2795 utilizing an Onyx Monolithic C18 column). The mobile phase consists of acetonitrile/MeOH/H2O (32.5/30/37.5) with 1% acetic acid pH adjusted with NH3 to pH 5.6, and absorbance measured at 280 nm with a Waters 2487 UV-detector.
The following is added chronologically to each well: • 1. 50 μl assay buffer, PBS with 5 mM GSH. • 2. 0.5 μl inhibitor in DMSO. • 3. 2 μl LTC4 synthase in PBS. The total protein concentration in this solution is 0.025 mg/ml. Incubation of the plate at room temperature for 10 minutes. • 4. 0.5 μl LTA4 methyl ester. Incubation of the plate at rt for 1 min. • 5. 50 μl stop solution. 80 μl of the incubation mixture is analysed with HPLC.

Compound	inhibition at 10 µM (inhibitor concentration 10 μM) [%]	Percantage Inhibition at 10 μM (unless specified otherwise) (inhibitor concentration 10 μM) [%]	IC50 [µM]
CCOc1ccc(NC(=O)Nc2ccc(C(=O)c3ccc(Nc4ccc(F)c(F)c4)c(C(=O)O)c3)cc2)cc1 [5:2, 2-(3,4-Difluoro-phenylamino)-5-{4-[3-(4-ethoxy-phenyl)-ureido]-benzoyl}-benzoic acid]	100		
CN(c1ccc(Cl)cc1)c1ccc(C(=O)c2ccc(Nc3ccc(C(F)(F)F)cc3)c(-c3nnn[nH]3)c2)cc1 [10:3, {4-[(4-Chloro-phenyl)-methyl-amino]-phenyl}-[3-(1H-tetrazol-5-yl)-4-(4-trifluoromethyl-phenylamino)-phenyl]-methanone]	71		
O=C(c1ccc(NC(=O)c2cc(Cl)ccc2O)cc1)c1ccc(Nc2ccc(F)c(F)c2)c(C(=O)O)c1 [5:4, 5-[4-(5-Chloro-2-hydroxy-benzoylamino)-benzoyl]-2-(3,4-difluoro-phenylamino)-benzoic acid]	78		
CN(c1ccc(Cl)cc1)c1ccc(C(=O)c2ccc(Oc3ccc(F)c(F)c3)c(C(=O)O)c2)cc1 [6:3, 5-{4-[(4-Chloro-phenyl)-methyl-amino]-benzoyl}-2-(3,4-difluoro-phenoxy)-benzoic acid]	90		
CCCCOc1ccc(S(=O)(=O)Nc2ccc(C(=O)c3ccc(NS(=O)(=O)c4ccc(OCCCC)cc4)c(C(=O)O)c3)cc2C(=O)O)cc1 [Example 7]		97	
O=C(c1ccc(NS(=O)(=O)c2ccc([N+](=O)[O-])cc2)c(C(=O)O)c1)c1ccc(NS(=O)(=O)c2ccc([N+](=O)[O-])cc2)c(C(=O)O)c1 [Example 4, 2-((4-nitrophenyl)sulfonylamino)-5-(3-carboxy-4-(((4-nitrophenyl)-sulfonyl)amino)benzoyl)benzoic acid]	100		0.191
